Measured values reported in patent publication US7045343B2, “Sterilization indicator test packs” (3M Innovative Properties Company, priority 1998, dated 2006).

Test system: Bacillus stearothermophilus spores
Assay: Spore outgrowth (color change) of indicators after hydrogen peroxide plasma sterilization
Format: cell-based
Details: 1–22 min diffusion
Description: Sterilization indicators for Examples 6–9 were prepared as described above with the exception that closure member 22 of the sterilization indicator was constructed of TYVEK™ high-density polyethylene fiber material, commercially available from E.I. du Pont de Nemours and Co., Wilmington, Del.
(§1) Sterilization indicators were made as described above with spores that had been coated with each of the chemicals and concentrations listed in Table 6. The indicators were placed in instrument trays and exposed to a hydrogen peroxide plasma sterilization procedure at 45–55° C. in a STERRAD™ 100SI GMP Sterilizer, obtained from Advanced Sterilization Products Co., Irvine, Calif. During the sterilization procedure a vacuum was drawn in the sterilization chamber for 5–6 minutes until the pressure was reduced to 300 mTorr. A 1.8 ml aliquot of an aqueous solution of 58–60% hydrogen peroxide was then injected into the sterilization chamber over a period of about 6 minutes, yielding an empty chamber concentration of […] hydrogen peroxide, and hydrogen peroxide vapor was allowed to diffuse throughout the chamber for 1–22 minutes at 6–10 Torr. A vacuum was then drawn, reducing the pressure to 500 mTorr and removing all detectable hydrogen peroxide vapor from the chamber.
After exposure to the sterilization procedure, the indicators were removed from the sterilizer and the inner containers containing the enzyme substrate and nutrient medium were crushed. The indicators were then incubated at 60° C. and examined for fluorescence every hour for 5 hours using a 3M™ ATTEST™ Model 190 Rapid Autoreader, commercially available from 3M Company, St. Paul, Minn. Additionally, spore growth, as indicated by a color change from purple to yellow, was determined visually after 168 hours of incubation.
The number of growth positive indicators detected after 168 hours of incubation is recorded in Table 6.
as §1, with “7.” for “6.”
as §1, with “8.” for “6.”, “chamber. […]” for “chamber.”

| Substance | NO. GROWTH POSITIVE 168 HR (Example 6, 10 mg/ml coating) | NO. GROWTH POSITIVE 168 HR (Example 7, 10 mg/ml coating) | NO. GROWTH POSITIVE 168 HR (Example 9, 5 mg/ml coating) | NO. GROWTH POSITIVE 168 HR (Example 9, 7.5 mg/ml coating) | NO. GROWTH POSITIVE 168 HR (Example 9, 10 mg/ml coating) | NO. GROWTH POSITIVE 168 HR (Example 9, 50 mg/ml coating) | NO. GROWTH POSITIVE 168 HR (Example 9, 100 mg/ml coating) | NO. GROWTH POSITIVE 168 HR (Example 7, 50 mg/ml coating) |
| --- | --- | --- | --- | --- | --- | --- | --- | --- |
| Decaglyceryl Decaoleate | 49 | 49 | 35 | 35 | 49 | 21 | 30 |  |
| Decaglyceryl Monostearate |  |  |  |  |  |  |  | 59 |
